# Assay: Compound was tested for inhibitory activity on mitochondrial electron transport using submitochondrial particles (SMP) from beef heart.
# Assay type: functional, Bos taurus
row,Structure (SMILES),IC50
1,C=CCC/C=C/C=C/CCCCCC[C@H]1CC[C@H]([C@@H]2CC[C@@H](CC(=O)OC)OO2)O1,< 1000 nM
2,C=CCC/C=C/C=C/CCCCCC[C@@H]1CC[C@@H]([C@@H]2CC[C@@H](CC(=O)OC)OO2)O1,< 1000 nM
